The source made the active and inactive calls. The rule behind the calls is not given here.
Assays:
Pseudomonas aeruginosa [1] = test: Antibacterial activity against Pseudomonas aeruginosa MTCC 2453 at 200 ug/ml by cup-plate method; format: functional; conditions: read-out: DIZ
Bacillus subtilis [2] = test: Antibacterial activity against Bacillus subtilis MTCC 121 at 50 ug/ml by cup plate method; format: functional; conditions: read-out: DIZ
Staphylococcus aureus [3] = test: Antibacterial activity against Staphylococcus aureus MTCC 96 at 50 ug/ml by cup-plate method; format: functional; conditions: read-out: DIZ
Escherichia coli [4] = test: Antibacterial activity against Escherichia coli MTCC 739 at 50 ug/ml by cup-plate method; format: functional; conditions: read-out: DIZ
Pseudomonas aeruginosa [5] = test: Antibacterial activity against Pseudomonas aeruginosa MTCC 2453 at 100 ug/ml by cup-plate method; format: functional; conditions: read-out: DIZ
Escherichia coli [6] = test: Antibacterial activity against Escherichia coli MTCC 739 at 100 ug/ml by cup-plate method; format: functional; conditions: read-out: DIZ
Staphylococcus aureus [7] = test: Antibacterial activity against Staphylococcus aureus MTCC 96 at 300 ug/ml by cup-plate method; format: functional; conditions: read-out: DIZ
Escherichia coli [8] = test: Antibacterial activity against Escherichia coli MTCC 739 at 200 ug/ml by cup-plate method; format: functional; conditions: read-out: DIZ
Candida albicans = test: Antifungal activity against Candida albicans MTCC 227 at 50 to 300 ug/ml by cup-plate method; format: functional, organism-based
Escherichia coli [9] = test: Antibacterial activity against Escherichia coli MTCC 739 at 300 ug/ml by cup-plate method; format: functional; conditions: read-out: DIZ
Bacillus subtilis [10] = test: Antibacterial activity against Bacillus subtilis MTCC 121 at 100 ug/ml by cup plate method; format: functional; conditions: read-out: DIZ
Pseudomonas aeruginosa [11] = test: Antibacterial activity against Pseudomonas aeruginosa MTCC 2453 at 50 ug/ml by cup-plate method; format: functional; conditions: read-out: DIZ
Bacillus subtilis [12] = test: Antibacterial activity against Bacillus subtilis MTCC 121 at 300 ug/ml by cup plate method; format: functional; conditions: read-out: DIZ
Bacillus subtilis [13] = test: Antibacterial activity against Bacillus subtilis MTCC 121 at 200 ug/ml by cup plate method; format: functional; conditions: read-out: DIZ
Pseudomonas aeruginosa [14] = test: Antibacterial activity against Pseudomonas aeruginosa MTCC 2453 at 300 ug/ml by cup-plate method; format: functional; conditions: read-out: DIZ
Staphylococcus aureus [15] = test: Antibacterial activity against Staphylococcus aureus MTCC 96 at 200 ug/ml by cup-plate method; format: functional; conditions: read-out: DIZ
Pseudomonas aeruginosa [16] = test: Antibacterial activity against Pseudomonas aeruginosa MTCC 2453 by cup-plate method; format: functional, organism-based
Staphylococcus aureus [17] = test: Antibacterial activity against Staphylococcus aureus MTCC 96 at 100 ug/ml by cup-plate method; format: functional; conditions: read-out: DIZ
Bacillus subtilis [18] = test: Antibacterial activity against Bacillus subtilis MTCC 121 by cup plate method; format: functional, organism-based
Staphylococcus aureus [19] = test: Antibacterial activity against Staphylococcus aureus MTCC 96 by cup-plate method; format: functional, organism-based
Escherichia coli [20] = test: Antibacterial activity against Escherichia coli MTCC 739 by cup-plate method; format: functional, organism-based

SMILES	zone of inhibition at 200 µg/mL (Pseudomonas aeruginosa [1]) [mm]	zone of inhibition at 50 µg/mL (Bacillus subtilis [2]) [mm]	zone of inhibition at 50 µg/mL (Staphylococcus aureus [3]) [mm]	zone of inhibition at 50 µg/mL (Escherichia coli [4]) [mm]	zone of inhibition at 100 µg/mL (Pseudomonas aeruginosa [5]) [mm]	zone of inhibition at 100 µg/mL (Escherichia coli [6]) [mm]	zone of inhibition at 300 µg/mL (Staphylococcus aureus [7]) [mm]	zone of inhibition at 200 µg/mL (Escherichia coli [8]) [mm]	Activity (Candida albicans)	zone of inhibition at 300 µg/mL (Escherichia coli [9]) [mm]	zone of inhibition at 100 µg/mL (Bacillus subtilis [10]) [mm]	zone of inhibition at 50 µg/mL (Pseudomonas aeruginosa [11]) [mm]	zone of inhibition at 300 µg/mL (Bacillus subtilis [12]) [mm]	zone of inhibition at 200 µg/mL (Bacillus subtilis [13]) [mm]	zone of inhibition at 300 µg/mL (Pseudomonas aeruginosa [14]) [mm]	zone of inhibition at 200 µg/mL (Staphylococcus aureus [15]) [mm]	Activity (Pseudomonas aeruginosa [16])	zone of inhibition at 100 µg/mL (Staphylococcus aureus [17]) [mm]	Activity (Bacillus subtilis [18])	Activity (Staphylococcus aureus [19])	also measured
O=C1N/C(=N\c2ccc(Cl)cc2)S/C1=C\c1ccccc1[N+](=O)[O-]	8	8	8	6	8	8	10	9	inactive	9	9	7	11	10	9	10	Dose-dependent effect	9	Dose-dependent effect	Dose-dependent effect	Activity (Escherichia coli [20]): Dose-dependent effect
O=C1N/C(=N\c2ccc(Cl)cc2)S/C1=C\c1ccccc1	8	5	5	7	8	8	10	10	inactive	12	8	8	10	9	11	9	Dose-dependent effect	8	Dose-dependent effect	Dose-dependent effect	Activity (Escherichia coli [20]): Dose-dependent effect
O=C1N/C(=N\c2ccc(F)c(Cl)c2)S/C1=C\c1ccccc1[N+](=O)[O-]	10	10	10	8	9	9	14	11	inactive	12	12	8	13	13	11	13	Dose-dependent effect	12	Dose-dependent effect	Dose-dependent effect	Activity (Escherichia coli [20]): Dose-dependent effect
O=C1N/C(=N\c2ccc(Cl)cc2)S/C1=C\c1ccc(Cl)cc1	8	7	6	8	7	8	10	7	inactive	9	8	6	10	8	10	9	Dose-dependent effect	8	Dose-dependent effect	Dose-dependent effect	Activity (Escherichia coli [20]): Dose-dependent effect
COc1cc(/C=C2\S/C(=N/c3ccc(Cl)cc3)NC2=O)ccc1O	8	6	6	7	7	8	8	9	inactive	9	7	7	7	7	9	7	Dose-dependent effect	6	Dose-dependent effect	Dose-dependent effect	Activity (Escherichia coli [20]): Dose-dependent effect
O=C1N/C(=N\c2ccc(Cl)cc2)S/C1=C\c1cccc([N+](=O)[O-])c1	9	9	8	7	9	8	10	9	inactive	10	10	8	11	10	11	9	Dose-dependent effect	9	Dose-dependent effect	Dose-dependent effect	Activity (Escherichia coli [20]): Dose-dependent effect
O=C(O)c1cn(C2CC2)c2cc(N3CCNCC3)c(F)cc2c1=O [CIPROFLOXACIN]	–	–	–	–	15	–	–	–	–	–	15	–	–	–	–	–	–	14	–	–	–
COc1cc(/C=C2\S/C(=N/c3ccc(F)c(Cl)c3)NC2=O)ccc1O	10	7	7	7	9	8	11	8	inactive	9	8	7	10	8	10	9	Dose-dependent effect	8	Dose-dependent effect	Dose-dependent effect	Activity (Escherichia coli [20]): Dose-dependent effect
COc1cc(/C=C2\S/C(=N/c3cccc(Cl)c3)NC2=O)ccc1O	9	7	6	7	8	8	8	9	inactive	9	8	6	9	8	9	8	Dose-dependent effect	7	Dose-dependent effect	Dose-dependent effect	Activity (Escherichia coli [20]): Dose-dependent effect
O=C1N/C(=N\c2cccc(Cl)c2)S/C1=C\c1ccccc1	8	6	6	7	7	7	9	7	inactive	8	7	6	7	7	9	8	Dose-dependent effect	7	Dose-dependent effect	Dose-dependent effect	Activity (Escherichia coli [20]): Dose-dependent effect
O=C1N/C(=N\c2ccc(F)c(Cl)c2)S/C1=C\c1ccccc1	10	6	6	7	10	8	10	11	inactive	12	6	8	12	10	12	10	Dose-dependent effect	10	Dose-dependent effect	Dose-dependent effect	Activity (Escherichia coli [20]): Dose-dependent effect

— ChEMBL document CHEMBL3044899, “Effect of chloro and fluoro groups on the antimicrobial activity of 2,5-disubstituted 4-thiazolidinones: a comparative study” (2012)
